Data as given in patent US7705016B2, “Regulation of food intake by modulation of long-chain fatty acyl-CoA levels in the hypothalamus” (Albert Einstein College of Medicine of Yeshiva University, priority 2003, dated 2010).

Experiments:
hepatic glucose fluxes = assay: Hepatic glucose fluxes (flux through Glc-6-Pase, glucose cycling, direct pathway) after ICV OA; type: in vivo, rat
Protocol: Analytical Procedures and Calculations. Plasma glucose was measured by the glucose oxidase method (Glucose Analyzer II, Beckman Instruments, Inc. Fullerton, Calif., USA). Plasma insulin and leptin levels were determined by RIA (rat Leptin RIA kit, Linco Research Inc., St. Charles, Mo.). Serum adiponectin was measured by RIA (Linco Research, Inc., St. Charles, Mo.). Plasma non-esterified fatty acid concentrations were determined an enzymatic method by an automated kit according to the manufacturer's specifications (Waco Pure Chemical Industries. Osaka, Japan). The radioactivity of [3-^3H]glucose in plasma was measured from supernatants of Ba (OH)2 and from ZnSO4 precipitates (Somogyi procedure), after each was evaporated to dryness for the removal of tritiated water. Hepatic uridine diphosphoglucose (UDP-glucose) concentrations and specific activities were obtained by two sequential chromatographic separations, as previously described (Giaccari and Rossetti, 1989; 1992; Rossetti et al., 1993; 1996). Calculations were performed as described (Barzilai et al., 1997).
ICV OA markedly decreases the in vivo flux through Glc-6-Pase. GP represents the net contribution of glucosyl units derived from gluconeogenesis and glycogenolysis. However, a portion of glucose entering the liver via phophorylation by glucokinase is also a substrate for de-phosphorylation via Glc-6-Pase. This futile cycle between glucokinase and Glc-6-Pase is commonly named glucose cycling and accounts for the difference between the total glucose output (flux through Glc-6-Pase) and GP (FIG. 9a).
In order to further delineate the mechanisms responsible for the effect of ICV OA infusion on hepatic glucose production we estimated the in vivo flux through Glc-6-Pase and the relative contribution of glucose cycling to glucose output (Table 3; FIG. 9b,c). FIG. 9b,c depict the effect of ICV OA and ICV vehicle on the rates of hepatic glucose fluxes during the pancreatic-insulin clamp procedure. […]

CPT1L mRNA = CPT1L mRNA in hypothalamic nuclei micro punches by real-time PCR after ICV injection; type: in vivo, rat; settings: 3 days after ICV injection; adjusted for β-actin
Protocol: Surgical implantation of ICV cannulae was performed on day 1 (˜3 weeks prior to the in vivo study). Full recovery of body weight and food intake was achieved by day 7. Rats randomized for ribozyme treatment received an ICV injection of CPT1L-Ribo, CPT inhibitors or controls on day 17. The experimental group treated with TDGA received ICV injection of the inhibitor on day 21, 6 hr prior to the harvesting of brains. Panels B. and C. show quantitation of CPT1L (B) and CPT1M (C) mRNA by real-time PCR. RNA was purified from individual hypothalamic nuclei (PVN, LHA, and arcuate), which were obtained by micro punch technique 3 days after ICV injection of pTarget control (▪; N=4) or CPT1LRibo (□; N=5). […] CPT1 activity was measured in the particulate fraction of protein extracts from animals treated with ICV control injections (▪; N=6, receiving aCSF+2% DMSO or Control Ribo), TDGA ( ?; N=6), or CPTL-Ribo (□; N=5). […] Levels of stearoyl-CoA (F) and oleyl-CoA (E) respectively were measured by HPLC in arcuate of rats injected ICV with control compound (▪; ST1340) or ST1326 (□).
ICV catheters were implanted in male Sprague-Dawley rats by stereotaxic surgery (Obici et al., 2002a; Obici et al., 2001; Liu et al., 1998). […] Thus, we next measured CPT1 activity in ARC and in whole hypothalamus. […]
Quantitation of CPT1 and neuropeptides mRNA by Northern and real-time PCR. […]

[1] = caloric restricted rats (55 kcal/d)

| Compound | glucose cycling (hepatic glucose fluxes; [1]) | total glucose output (in vivo flux through glucose-6-phosphatase) (hepatic glucose fluxes; [1]) | glucose cycling (hepatic glucose fluxes; over-fed rats (140 kcal/d)) | CPT1L mRNA in the arcuate nuclei (ARC) (CPT1L mRNA) |
| --- | --- | --- | --- | --- |
| CCCCCCCC/C=C\CCCCCCCC(=O)O [OA, oleic acid] | modestly and similarly decreased | markedly suppressed | modestly and similarly decreased |  |
| CPT1L-Ribo: plasmid (pTarget, CMV promoter) expressing a hammerhead ribozyme that specifically cleaves rat CPT1L mRNA, complexed to PEI for ICV injection (DNA CUGUACCAAAGAGCUGUAGAGUCCGUGAGGACGAAACGCCGCUCACAAUG) |  |  |  | marked decrease |
